Source: US20230399312A1, “SUBSTITUTED PYRIMIDINES AND METHODS OF USE” (THERAVANCE BIOPHARMA R&D IP, LLC, priority 2020, published 2023)

Assays:
[1] = tested on: TGF-β-stimulated SMAD3 phosphorylation in BEAS-2B cells; experiment: Cellular ALK5 potency assay, inhibition of TGF-β stimulated pSMAD3 formation in BEAS-2B cells; assay type: cell-based; details: Homo sapiens, pSMAD3, TGF-β 10 ng/mL, read-out: BEAS2B pIC50 (converted)
Method in brief: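 Reported as pIC50, potency reflects dose-dependent loss of AlphaLISA pSMAD3 signal versus TGF-β-stimulated, compound-free BEAS-2B cells. Compound was applied for 1 h in BSA-containing HBSS buffer before a 30-min challenge with TGF-β at 10 ng/mL final.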

[2] = biological target: T1, recombinant human ALK5 (TGF-βR1) protein (Homo sapiens, UniProt P36897); experiment: Biochemical ALK5 (TGF-βR1) assay to measure pKi (LANCE Ultra ULight kinase assay); details: apparent pKi, converted from pIC50 by Cheng-Prusoff
T1 construct: purchased Life Technologies PR9075A
T1 sequence (P36897 34-503): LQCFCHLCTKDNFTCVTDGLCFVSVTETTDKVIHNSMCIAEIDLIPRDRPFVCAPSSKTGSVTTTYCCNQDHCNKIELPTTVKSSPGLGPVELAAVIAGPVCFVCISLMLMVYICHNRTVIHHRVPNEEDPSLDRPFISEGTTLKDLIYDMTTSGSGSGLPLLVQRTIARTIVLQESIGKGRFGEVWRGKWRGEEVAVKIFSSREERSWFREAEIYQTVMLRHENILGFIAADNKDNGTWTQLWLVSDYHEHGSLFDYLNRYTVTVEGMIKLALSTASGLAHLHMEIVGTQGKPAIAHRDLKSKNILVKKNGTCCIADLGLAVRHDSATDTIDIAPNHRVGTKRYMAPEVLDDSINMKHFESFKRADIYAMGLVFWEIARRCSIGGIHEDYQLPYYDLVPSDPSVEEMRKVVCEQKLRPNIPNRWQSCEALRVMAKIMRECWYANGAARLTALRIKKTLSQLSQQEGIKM
Method in brief: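 Enzyme was preincubated with compound for 60 min at room temperature, then ATP (added from a 125 μM 5× stock with 2 mM DTT) started a 60 min reaction at 37 °C. EDTA plus Eu-anti-phospho-Topo2α (Thr1342) antibody stopped it; TR-FRET pIC50 values were converted to pKi by Cheng-Prusoff.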

Row | Ki [2] | SMILES | IC50 [1]
1 | 0.0398 to 0.316 nM | Cc1cccc(-c2nccc(Nc3ccnc(Nc4ccc5c(c4)CC(N)C5)n3)n2)n1 (stereo not shown) [Compound 524, N2-(2-aminoindan-5-yl)-N4-[2-(6-methyl-2-pyridyl)pyrimidin-4-yl]pyrimidine-2,4-diamine] | 25.1 to 158 nM
2 | 0.398 to 3.16 nM | Cc1cccc(-c2nccc(Nc3ccnc(Nc4ccc(N5CCC(CNCC(C)C)CC5)cc4)n3)n2)n1 [Compound 525, N2-[4-[4-[(isobutylamino)methyl]-1-piperidyl]phenyl]-N4-[2-(6-methyl-2-pyridyl)pyrimidin-4-yl]pyrimidine-2,4-diamine] | 25.1 to 158 nM
3 | 3.98 to 31.6 nM | Cc1cccc(-c2nccc(Nc3ccnc(Nc4ccc5c(c4)OCCO5)n3)n2)n1 [Compound 526, N2-(2,3-dihydro-1,4-benzodioxin-6-yl)-N4-[2-(6-methyl-2-pyridyl)pyrimidin-4-yl]pyrimidine-2,4-diamine] | 25.1 to 158 nM
4 | 0.398 to 3.16 nM | Cc1cccc(-c2nccc(Nc3ccnc(Nc4ccc(S(=O)(=O)N5CCN(C6CC6)CC5)cc4)n3)n2)n1 [Compound 527, N2-[4-(4-cyclopropylpiperazin-1-yl)sulfonylphenyl]-N4-[2-(6-methyl-2-pyridyl)pyrimidin-4-yl]pyrimidine-2,4-diamine] | 25.1 to 158 nM
5 | 3.98 to 31.6 nM | CCOC(=O)Cc1cc(Nc2ccnc(Nc3ccc(N4CCNCC4)cc3)n2)nc(-c2cccc(C)n2)n1 [Compound 529, ethyl 2-[2-(6-methyl-2-pyridyl)-6-[[2-(4-piperazin-1-ylanilino)pyrimidin-4-yl]amino]pyrimidin-4-yl]acetate] | 25.1 to 158 nM
6 | 0.0398 to 0.316 nM | Cc1cccc(-c2nccc(Nc3ccnc(Nc4ccc(N5CCNCC5)c(CC(=O)OC5CNC5)c4)n3)n2)n1 [Compound 530, azetidin-3-yl 2-[5-[[4-[[2-(6-methyl-2-pyridyl)pyrimidin-4-yl]amino]pyrimidin-2-yl]amino]-2-piperazin-1-yl-phenyl]acetate] | 200 to 1260 nM
7 | 0.0398 to 0.316 nM | Cc1cccc(-c2nccc(Nc3ccnc(Nc4cccc(NC(=O)N5CCN(C(C)C)CC5)c4)n3)n2)n1 [Compound 531, 4-isopropyl-N-[3-[[4-[[2-(6-methyl-2-pyridyl)pyrimidin-4-yl]amino]pyrimidin-2-yl]amino]phenyl]piperazine-1-carboxamide] | 25.1 to 158 nM
8 | 0.398 to 3.16 nM | Cc1cccc(-c2nccc(Nc3ccnc(Nc4cc(C(=O)O)cs4)n3)n2)n1 [Compound 532, 5-[[4-[[2-(6-methyl-2-pyridyl)pyrimidin-4-yl]amino]pyrimidin-2-yl]amino]thiophene-3-carboxylic acid] | 200 to 1260 nM
9 | 0.0398 to 0.316 nM | Cc1cccc(-c2nccc(Nc3ccnc(Nc4ccc(CN5CCN(CC(C)C)CC5)cc4)n3)n2)n1 [Compound 533, N2-[4-[(4-isobutylpiperazin-1-yl)methyl]phenyl]-N4-[2-(6-methyl-2-pyridyl)pyrimidin-4-yl]pyrimidine-2,4-diamine] | 25.1 to 158 nM
10 | 0.0398 to 0.316 nM | Cc1cccc(-c2nccc(Nc3ccnc(Nc4ccc(N5CCN(CCO)CC5)cc4)n3)n2)n1 [Compound 534, 2-[4-[4-[[4-[[2-(6-methyl-2-pyridyl)pyrimidin-4-yl]amino]pyrimidin-2-yl]amino]phenyl]piperazin-1-yl]ethanol] | 25.1 to 158 nM
11 | 3.98 to 31.6 nM | Cc1cccc(-c2nccc(Nc3ccnc(Nc4ccc(-c5cn[nH]c5)cc4)n3)n2)n1 [Compound 535, N4-[2-(6-methyl-2-pyridyl)pyrimidin-4-yl]-N2-[4-(1H-pyrazol-4-yl)phenyl]pyrimidine-2,4-diamine] | ≤ 20 nM
12 | 0.0398 to 0.316 nM | Cc1cccc(-c2nccc(Nc3ccnc(Nc4csc(C(=O)N5CCN[C@@H](CO)C5)c4)n3)n2)n1 [Compound 536, [(3R)-3-(hydroxymethyl)piperazin-1-yl]-[4-[[4-[[2-(6-methyl-2-pyridyl)pyrimidin-4-yl]amino]pyrimidin-2-yl]amino]-2-thienyl]methanone] | 25.1 to 158 nM
13 | 0.0398 to 0.316 nM | Cc1cccc(-c2nccc(Nc3ccnc(Nc4ccc(NCC5CNC5)cc4)n3)n2)n1 [Compound 537, N2-(4-((azetidin-3-ylmethyl)amino)phenyl)-N4-(2-(6-methylpyridin-2-yl)pyrimidin-4-yl)pyrimidine-2,4-diamine] | 25.1 to 158 nM
14 | 0.0398 to 0.316 nM | Cc1cccc(-c2nccc(Nc3ccnc(Nc4ccc(-c5cnn(C6COC6)c5)cc4)n3)n2)n1 [Compound 538, N4-(2-(6-methylpyridin-2-yl)pyrimidin-4-yl)-N2-(4-(1-(oxetan-3-yl)-1H-pyrazol-4-yl)phenyl)pyrimidine-2,4-diamine] | 25.1 to 158 nM
15 | ≤ 0.0316 nM | Cc1cccc(-c2nccc(Nc3ccnc(Nc4ccc(C5CNCCN5)cc4)n3)n2)n1 (stereo not shown) [Compound 539, N4-[2-(6-methyl-2-pyridyl)pyrimidin-4-yl]-N2-(4-piperazin-2-ylphenyl)pyrimidine-2,4-diamine] | 25.1 to 158 nM
16 | 0.0398 to 0.316 nM | Fc1cc(F)c(-c2ncc(C3CC3)c(Nc3ccnc(Nc4ccc(N5CCNCC5)cc4)n3)n2)cc1Cl [Compound 540, N4-[2-(5-chloro-2,4-difluoro-phenyl)-5-cyclopropyl-pyrimidin-4-yl]-N2-(4-piperazin-1-ylphenyl)pyrimidine-2,4-diamine] | 1580 to 10000 nM
17 | 0.0398 to 0.316 nM | Cc1cccc(-c2nccc(Nc3ccnc(Nc4ccc(S(=O)(=O)N5CCN(CCO)CC5)cc4)n3)n2)n1 [Compound 541, 2-[4-[4-[[4-[[2-(6-methyl-2-pyridyl)pyrimidin-4-yl]amino]pyrimidin-2-yl]amino]phenyl]sulfonylpiperazin-1-yl]ethanol] | 25.1 to 158 nM
18 | 0.0398 to 0.316 nM | Cc1nc(-c2nccc(Nc3ccnc(Nc4ccc(N5CCC(N6CCN(C)CC6)CC5)cc4)n3)n2)ccc1F [Compound 542, N4-[2-(5-fluoro-6-methyl-2-pyridyl)pyrimidin-4-yl]-N2-[4-[4-(4-methylpiperazin-1-yl)-1-piperidyl]phenyl]pyrimidine-2,4-diamine] | 25.1 to 158 nM
19 | 0.0398 to 0.316 nM | Cc1cccc(-c2nccc(Nc3ccnc(Nc4csc(C(=O)O[C@@H]5CCNC5)c4)n3)n2)n1 [Compound 543, [(3R)-pyrrolidin-3-yl] 4-[[4-[[2-(6-methyl-2-pyridyl)pyrimidin-4-yl]amino]pyrimidin-2-yl]amino]thiophene-2-carboxylate] | 25.1 to 158 nM
20 | 0.0398 to 0.316 nM | Cc1cccc(-c2nccc(Nc3ccnc(Nc4csc(C(=O)O[C@H]5CCNC5)c4)n3)n2)n1 [Compound 544, [(3S)-pyrrolidin-3-yl] 4-[[4-[[2-(6-methyl-2-pyridyl)pyrimidin-4-yl]amino]pyrimidin-2-yl]amino]thiophene-2-carboxylate] | 25.1 to 158 nM
21 | 0.0398 to 0.316 nM | Cc1cccc(-c2nccc(Nc3ccnc(Nc4ccc(C(=O)OCC5CNC5)nc4)n3)n2)n1 [Compound 545, azetidin-3-ylmethyl 5-((4-((2-(6-methylpyridin-2-yl)pyrimidin-4-yl)amino)pyrimidin-2-yl)amino)picolinate] | 25.1 to 158 nM
22 | 0.0398 to 0.316 nM | Cc1cccc(-c2nccc(Nc3ccnc(Nc4ccc(C(=O)O[C@@H]5CCNC5)nc4)n3)n2)n1 [Compound 546, [(3R)-pyrrolidin-3-yl] 5-[[4-[[2-(6-methyl-2-pyridyl)pyrimidin-4-yl]amino]pyrimidin-2-yl]amino]pyridine-2-carboxylate] | 25.1 to 158 nM
23 | 0.0398 to 0.316 nM | Cc1cccc(-c2nccc(Nc3ccnc(Nc4ccc(C(=O)O[C@H]5CCNC5)nc4)n3)n2)n1 [Compound 547, [(3S)-pyrrolidin-3-yl] 5-[[4-[[2-(6-methyl-2-pyridyl)pyrimidin-4-yl]amino]pyrimidin-2-yl]amino]pyridine-2-carboxylate] | 25.1 to 158 nM
24 | 0.398 to 3.16 nM | Cc1cccc(-c2nccc(Nc3ccnc(Nc4cncc(C(=O)OCC5CNC5)c4)n3)n2)n1 [Compound 548, azetidin-3-ylmethyl 5-[[4-[[2-(6-methyl-2-pyridyl)pyrimidin-4-yl]amino]pyrimidin-2-yl]amino]pyridine-3-carboxylate] | 25.1 to 158 nM
25 | 0.398 to 3.16 nM | Cc1cccc(-c2nccc(Nc3ccnc(Nc4cncc(C(=O)O[C@@H]5CCNC5)c4)n3)n2)n1 [Compound 549, (R)-pyrrolidin-3-yl 5-((4-((2-(6-methylpyridin-2-yl)pyrimidin-4-yl)amino)pyrimidin-2-yl)amino)nicotinate] | 25.1 to 158 nM
26 | 0.398 to 3.16 nM | Cc1cccc(-c2nccc(Nc3ccnc(Nc4cncc(C(=O)O[C@H]5CCNC5)c4)n3)n2)n1 [Compound 550, [(3S)-pyrrolidin-3-yl] 5-[[4-[[2-(6-methyl-2-pyridyl)pyrimidin-4-yl]amino]pyrimidin-2-yl]amino]pyridine-3-carboxylate] | 25.1 to 158 nM
